The results in this text go back to ChEMBL document CHEMBL5465560, “Selectivity Literature for EUbOPEN Chemogenomic Library” (2024).

Each structure is given as a SMILES string.

For assay [1], the target named is T1, Calcium/calmodulin-dependent protein kinase type IV (Homo sapiens) (UniProt Q16566).
T1 sequence (whole entry): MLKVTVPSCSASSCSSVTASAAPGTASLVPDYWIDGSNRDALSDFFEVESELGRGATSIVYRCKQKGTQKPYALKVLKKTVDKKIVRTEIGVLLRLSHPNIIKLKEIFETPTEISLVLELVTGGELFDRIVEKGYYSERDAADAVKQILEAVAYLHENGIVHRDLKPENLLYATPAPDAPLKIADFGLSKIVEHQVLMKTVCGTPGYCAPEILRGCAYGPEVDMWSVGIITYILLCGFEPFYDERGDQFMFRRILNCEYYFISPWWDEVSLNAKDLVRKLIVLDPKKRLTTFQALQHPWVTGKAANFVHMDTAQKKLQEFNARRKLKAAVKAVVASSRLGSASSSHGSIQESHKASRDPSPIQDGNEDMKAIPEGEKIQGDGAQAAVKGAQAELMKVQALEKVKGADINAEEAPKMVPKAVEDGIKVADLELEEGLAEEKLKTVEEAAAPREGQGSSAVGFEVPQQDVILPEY
As to the kind of experiment: Selectivity interaction (Upstate Kinase Profiler service (Millipore)) EUB0000056c CAMK4. To be noted: at 1 µM.

The target of assay [2] is Mitogen-activated protein kinase 1 (Homo sapiens, UniProt P28482). As to the kind of experiment: Selectivity interaction (ProQinase) EUB0000171b MAPK1.
The target in assay [3] is T2, Mitogen-activated protein kinase kinase kinase 3 (Homo sapiens) (UniProt Q99759).
T2 sequence (whole entry): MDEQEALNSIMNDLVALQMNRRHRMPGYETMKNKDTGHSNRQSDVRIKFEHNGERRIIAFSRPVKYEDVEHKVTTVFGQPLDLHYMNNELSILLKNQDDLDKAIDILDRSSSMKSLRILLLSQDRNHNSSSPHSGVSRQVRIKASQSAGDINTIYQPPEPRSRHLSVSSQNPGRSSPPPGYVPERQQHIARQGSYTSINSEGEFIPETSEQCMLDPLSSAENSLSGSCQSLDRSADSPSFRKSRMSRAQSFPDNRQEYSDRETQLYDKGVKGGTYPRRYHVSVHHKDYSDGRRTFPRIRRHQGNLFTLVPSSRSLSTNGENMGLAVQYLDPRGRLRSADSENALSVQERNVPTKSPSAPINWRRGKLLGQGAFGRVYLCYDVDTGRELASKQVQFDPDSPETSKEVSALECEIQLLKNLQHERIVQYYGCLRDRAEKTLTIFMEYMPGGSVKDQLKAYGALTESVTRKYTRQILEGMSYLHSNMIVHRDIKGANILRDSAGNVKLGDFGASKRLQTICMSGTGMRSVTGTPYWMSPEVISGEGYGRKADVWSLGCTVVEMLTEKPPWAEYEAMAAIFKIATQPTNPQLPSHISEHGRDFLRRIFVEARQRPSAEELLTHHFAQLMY
As to the kind of experiment: Selectivity interaction (KinomeScan (DiscoverX)) EUB0001079a MAP3K3. To be noted: at 1 µM.

For assay [4], the target named is Protein kinase C theta type (Homo sapiens, UniProt Q04759). As to the kind of experiment: Selectivity interaction (Millipore kinase profiler) EUB0000124b PRKCQ. To be noted: at 10 µM.
In assay [5] the target is Receptor-interacting serine/threonine-protein kinase 2 (Homo sapiens, UniProt O43353). As to the kind of experiment: Selectivity interaction (KinomeScan (DiscoverX)) EUB0001049a RIPK2. To be noted: at 1 µM.
Assay [6] deals with T3, 5'-AMP-activated protein kinase catalytic subunit alpha-1 (Homo sapiens, UniProt Q13131). As to the kind of experiment: Selectivity interaction (KinomeScan (DiscoverX)) EUB0000666a PRKAA1. Particulars: at 10 µM.
The target in assay [7] is T4, Serine/threonine-protein kinase 4 (Homo sapiens) (UniProt Q13043).
T4 sequence (whole entry): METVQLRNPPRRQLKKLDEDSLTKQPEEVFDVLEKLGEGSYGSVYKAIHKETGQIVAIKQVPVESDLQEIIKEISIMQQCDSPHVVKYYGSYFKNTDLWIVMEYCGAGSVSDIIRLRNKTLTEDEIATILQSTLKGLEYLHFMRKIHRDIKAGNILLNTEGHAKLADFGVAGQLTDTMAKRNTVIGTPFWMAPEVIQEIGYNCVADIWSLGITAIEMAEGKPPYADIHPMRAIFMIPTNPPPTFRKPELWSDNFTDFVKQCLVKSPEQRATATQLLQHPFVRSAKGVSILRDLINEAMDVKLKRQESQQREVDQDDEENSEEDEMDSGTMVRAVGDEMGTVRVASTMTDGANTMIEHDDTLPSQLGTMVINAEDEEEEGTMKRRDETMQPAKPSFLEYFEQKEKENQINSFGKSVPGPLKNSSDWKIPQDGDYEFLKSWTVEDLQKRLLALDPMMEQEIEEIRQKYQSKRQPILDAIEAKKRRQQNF
As to the kind of experiment: Selectivity interaction (SelectScreen profiling (Invitrogen)) EUB0000607a STK4. To be noted: at 2 µM.

In assay [8] the target is Calcium/calmodulin-dependent protein kinase type 1B (Homo sapiens) (UniProt Q6P2M8). As to the kind of experiment: Selectivity interaction (KinomeScan (DiscoverX)) EUB0000229b PNCK. To be noted: at 10 µM.
For assay [9], the target named is T3, 5'-AMP-activated protein kinase catalytic subunit alpha-1. As to the kind of experiment: Selectivity interaction (ActivX KiNativ screen (ex vivo kinase selectivity in human PBMCs)) EUB0001619a PRKAA1. In kind it is cell-based. To be noted: PBMC, at 1 µM.
Assay [10] deals with Cyclin-dependent kinase 1 (Homo sapiens) (UniProt P06493). As to the kind of experiment: Selectivity interaction (Kinase panel (KiNativ target engagement assay in Jurkat cells)) EUB0001635a CDK1. Format: cell-based. To be noted: Selectivity number of off-targets 0.0, Selectivity number of targets 233.0, Source Knowledge https://www.sciencedirect.com/science/article/pii/S2451945619300674?via%3Dihub, at 1 µM.

In assay [11] the target is Serine/threonine-protein kinase 38-like (Homo sapiens) (UniProt Q9Y2H1). As to the kind of experiment: Selectivity interaction (KinomeScan (DiscoverX)) EUB0000618a STK38L. Particulars: at 10 µM.
Serine/threonine-protein kinase 38-like (Homo sapiens), sequence (Q9Y2H1 2-464 limits assumed): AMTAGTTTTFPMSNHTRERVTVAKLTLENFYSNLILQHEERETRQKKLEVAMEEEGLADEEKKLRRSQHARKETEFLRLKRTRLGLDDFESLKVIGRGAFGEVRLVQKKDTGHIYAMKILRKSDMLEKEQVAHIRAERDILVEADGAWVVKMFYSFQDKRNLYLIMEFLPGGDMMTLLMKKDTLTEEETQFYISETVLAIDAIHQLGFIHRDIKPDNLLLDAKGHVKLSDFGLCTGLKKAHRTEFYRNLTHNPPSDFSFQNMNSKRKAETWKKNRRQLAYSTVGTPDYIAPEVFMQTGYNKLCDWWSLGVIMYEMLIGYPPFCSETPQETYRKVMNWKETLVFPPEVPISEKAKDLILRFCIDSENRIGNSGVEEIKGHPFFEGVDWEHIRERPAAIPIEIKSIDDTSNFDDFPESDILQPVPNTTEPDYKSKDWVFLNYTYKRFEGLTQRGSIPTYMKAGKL

Mitogen-activated protein kinase 1, sequence (P28482 whole entry): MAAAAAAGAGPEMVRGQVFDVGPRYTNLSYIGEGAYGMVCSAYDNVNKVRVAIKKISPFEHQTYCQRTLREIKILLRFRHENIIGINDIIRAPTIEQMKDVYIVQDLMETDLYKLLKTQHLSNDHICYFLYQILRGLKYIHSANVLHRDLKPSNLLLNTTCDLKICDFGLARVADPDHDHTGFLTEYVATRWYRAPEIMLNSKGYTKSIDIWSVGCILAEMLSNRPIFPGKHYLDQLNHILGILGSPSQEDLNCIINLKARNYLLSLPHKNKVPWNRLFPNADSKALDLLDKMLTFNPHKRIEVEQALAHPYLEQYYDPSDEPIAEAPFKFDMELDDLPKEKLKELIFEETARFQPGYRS
T3 sequence (Q13131 whole entry, looked up): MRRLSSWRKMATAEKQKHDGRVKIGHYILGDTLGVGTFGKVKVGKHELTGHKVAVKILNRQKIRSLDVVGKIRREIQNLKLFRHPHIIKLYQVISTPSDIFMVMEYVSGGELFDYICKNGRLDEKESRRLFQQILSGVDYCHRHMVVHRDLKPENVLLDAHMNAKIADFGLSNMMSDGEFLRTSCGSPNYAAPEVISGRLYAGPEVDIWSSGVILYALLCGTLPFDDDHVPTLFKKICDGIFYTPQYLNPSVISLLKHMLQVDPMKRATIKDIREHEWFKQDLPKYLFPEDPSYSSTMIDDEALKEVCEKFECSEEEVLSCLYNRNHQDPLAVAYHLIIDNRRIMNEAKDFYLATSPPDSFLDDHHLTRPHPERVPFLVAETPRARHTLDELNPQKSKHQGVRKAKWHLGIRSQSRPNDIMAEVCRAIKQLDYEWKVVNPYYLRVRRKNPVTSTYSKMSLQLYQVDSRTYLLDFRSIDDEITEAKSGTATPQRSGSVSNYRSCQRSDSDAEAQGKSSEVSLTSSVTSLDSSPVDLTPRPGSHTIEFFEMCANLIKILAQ
Protein kinase C theta type, sequence (Q04759 whole entry, looked up): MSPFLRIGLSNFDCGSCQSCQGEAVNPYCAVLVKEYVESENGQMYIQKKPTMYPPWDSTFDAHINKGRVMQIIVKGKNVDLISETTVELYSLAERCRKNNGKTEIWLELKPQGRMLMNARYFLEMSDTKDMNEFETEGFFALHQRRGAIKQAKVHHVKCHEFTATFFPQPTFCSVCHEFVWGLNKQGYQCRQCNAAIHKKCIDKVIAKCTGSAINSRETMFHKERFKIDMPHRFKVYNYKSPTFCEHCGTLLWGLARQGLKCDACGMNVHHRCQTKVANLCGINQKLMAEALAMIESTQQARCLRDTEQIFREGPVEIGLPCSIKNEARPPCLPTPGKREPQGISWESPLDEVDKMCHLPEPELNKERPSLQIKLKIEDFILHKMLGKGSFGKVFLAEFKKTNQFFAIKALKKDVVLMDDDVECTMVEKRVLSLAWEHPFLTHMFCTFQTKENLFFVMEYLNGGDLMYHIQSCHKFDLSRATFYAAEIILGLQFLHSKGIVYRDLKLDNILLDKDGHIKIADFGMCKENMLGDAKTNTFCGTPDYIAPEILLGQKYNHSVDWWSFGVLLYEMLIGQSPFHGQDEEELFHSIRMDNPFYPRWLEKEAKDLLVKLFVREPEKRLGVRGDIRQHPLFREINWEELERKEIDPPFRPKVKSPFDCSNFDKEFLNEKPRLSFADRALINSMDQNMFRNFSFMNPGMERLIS
Receptor-interacting serine/threonine-protein kinase 2, sequence (O43353 whole entry): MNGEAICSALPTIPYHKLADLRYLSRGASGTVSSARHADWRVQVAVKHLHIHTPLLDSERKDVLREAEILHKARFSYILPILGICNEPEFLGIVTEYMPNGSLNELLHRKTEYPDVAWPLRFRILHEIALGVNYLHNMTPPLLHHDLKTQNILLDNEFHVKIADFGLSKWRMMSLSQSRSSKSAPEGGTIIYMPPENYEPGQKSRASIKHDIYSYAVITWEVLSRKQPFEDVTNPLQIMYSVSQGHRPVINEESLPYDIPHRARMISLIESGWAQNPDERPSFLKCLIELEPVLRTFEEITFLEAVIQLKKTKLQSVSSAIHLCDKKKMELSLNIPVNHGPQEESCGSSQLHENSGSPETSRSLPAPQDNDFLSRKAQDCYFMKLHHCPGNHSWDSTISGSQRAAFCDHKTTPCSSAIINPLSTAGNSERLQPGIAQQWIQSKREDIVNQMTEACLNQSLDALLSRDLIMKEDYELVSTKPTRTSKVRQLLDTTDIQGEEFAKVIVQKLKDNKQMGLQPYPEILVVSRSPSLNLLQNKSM
Calcium/calmodulin-dependent protein kinase type 1B (Homo sapiens), sequence (Q6P2M8 whole entry): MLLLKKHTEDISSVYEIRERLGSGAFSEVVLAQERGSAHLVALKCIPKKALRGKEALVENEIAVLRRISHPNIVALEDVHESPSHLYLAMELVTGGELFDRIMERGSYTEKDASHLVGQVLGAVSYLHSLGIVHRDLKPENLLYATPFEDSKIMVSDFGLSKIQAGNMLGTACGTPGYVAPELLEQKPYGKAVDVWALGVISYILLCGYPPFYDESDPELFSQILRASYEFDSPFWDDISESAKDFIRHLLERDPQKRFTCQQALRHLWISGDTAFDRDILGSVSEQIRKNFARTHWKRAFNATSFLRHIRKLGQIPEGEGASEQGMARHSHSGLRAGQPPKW
Cyclin-dependent kinase 1 (Homo sapiens), sequence (P06493 whole entry, looked up): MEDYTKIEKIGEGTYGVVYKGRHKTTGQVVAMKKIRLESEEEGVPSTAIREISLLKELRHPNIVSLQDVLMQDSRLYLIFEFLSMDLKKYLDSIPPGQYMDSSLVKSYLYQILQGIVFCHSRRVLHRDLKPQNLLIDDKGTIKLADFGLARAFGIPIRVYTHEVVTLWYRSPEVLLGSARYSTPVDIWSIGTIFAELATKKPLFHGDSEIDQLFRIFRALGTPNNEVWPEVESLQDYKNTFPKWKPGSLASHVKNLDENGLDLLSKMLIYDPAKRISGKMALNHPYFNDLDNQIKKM

Turning to `Cc1ccc(-c2ccc3c(ccc4sc5c(c43)NC[C@@H](C)NC5=O)n2)cn1`, in assay [1], the % of inhibition is 15%.

Turning to `C=CC(=O)Nc1cccc(C(=O)Nc2ccc(Nc3cc(-c4[nH]c(SC)nc4C)ccn3)cc2)c1`, the % of control was 96% in assay [2] (at 1 µM) and 100% in assay [2] (at 5 µM).

In [3], `Nc1cnc(N2CCc3cc(S(=O)(=O)Nc4c(F)cc(Cl)cc4F)cc(N4CCCC4=O)c32)nc1` [TP-020n] yielded a % of control of 97%.

`CC(=O)Nc1cccc(-n2c(=O)n(C3CC3)c(=O)c3c(Nc4ccc(I)cc4F)n(C)c(=O)c(C)c32)c1` showed a % of control in [4] of 114%.

`COc1cc(Nc2nc(C)cc(-c3cnn4nc(OC)ccc34)n2)cc(C(F)(F)F)c1` had a % of control in [5] of 100%.

Compound `O=C(NOC[C@H](O)CO)c1ccc(F)c(F)c1Nc1ccc(I)cc1F` gave a % of control in [6] of 100%.

In the case of `CNC(=O)Nc1ccc(-c2nc(N3CC4CCC(C3)O4)c3cnn(C4CCC5(CC4)OCCO5)c3n2)cc1`, in assay [7], the % of inhibition is 12%.

Take `COc1cc(N(C)c2ccnc3ccc(C(F)(F)F)cc23)cc(OC)c1OC`: the % binding in assay [8] was 98%.

For the compound `N#Cc1cccc(-c2c[nH]c3ncnc(N4CCOCC4)c23)c1`, in assay [9], the % of inhibition is 33%.

With `C=CC(=O)Nc1ccc(C(=O)Nc2[nH]nc3c2CN(C(=O)N[C@H](CN(C)C)c2ccccc2)C3(C)C)cc1`, in assay [10], the % of engagement was -3.1%.

`O[C@H]1CC[C@H](Nc2ncc3nc(Nc4c(F)cc(F)cc4F)n([C@H]4CCOC4)c3n2)CC1` returned a % of control in [11] of 100%.
